In ChEMBL document CHEMBL4825718, “Novel Dihydrooxadiazinones as PDE3 Inhibitors for Treating Cancer” (ACS Med Chem Lett, 2021):
pIC50: −log10 of the molar value.

What was measured:
[1] = tested on: IGR-37 cell line; experiment: Antiproliferative activity against human IGR37 cells assessed as cell growth inhibition after 72 hrs by Cell titer glo assay; format: functional, cell-based; settings: IGR-37, 72 h
[2] = tested on: SK-MEL3; experiment: Antiproliferative activity against human SK-MEL3 cells assessed as cell growth inhibition after 72 hrs by Cell titer glo assay; format: functional, cell-based; settings: SK-MEL3, 72 h
[3] = tested on: HeLa; experiment: Antiproliferative activity against human HeLa cells assessed as cell growth inhibition after 72 hrs by Cell titer glo assay; format: functional, cell-based
[4] = target: cGMP-inhibited 3',5'-cyclic phosphodiesterase 3B (Homo sapiens, UniProt Q13370); experiment: Inhibition of human full length PDE3B expressed in Sf9 cells measured after 60 mins by [3H]-cAMP Scintillation proximity assay
[5] = target: cGMP-inhibited 3',5'-cyclic phosphodiesterase 3A (Homo sapiens, UniProt Q14432); experiment: Inhibition of human full length PDE3A expressed in Sf9 cells measured after 60 mins by [3H]-cAMP Scintillation proximity assay
Sequence of cGMP-inhibited 3',5'-cyclic phosphodiesterase 3A (Q14432 whole entry): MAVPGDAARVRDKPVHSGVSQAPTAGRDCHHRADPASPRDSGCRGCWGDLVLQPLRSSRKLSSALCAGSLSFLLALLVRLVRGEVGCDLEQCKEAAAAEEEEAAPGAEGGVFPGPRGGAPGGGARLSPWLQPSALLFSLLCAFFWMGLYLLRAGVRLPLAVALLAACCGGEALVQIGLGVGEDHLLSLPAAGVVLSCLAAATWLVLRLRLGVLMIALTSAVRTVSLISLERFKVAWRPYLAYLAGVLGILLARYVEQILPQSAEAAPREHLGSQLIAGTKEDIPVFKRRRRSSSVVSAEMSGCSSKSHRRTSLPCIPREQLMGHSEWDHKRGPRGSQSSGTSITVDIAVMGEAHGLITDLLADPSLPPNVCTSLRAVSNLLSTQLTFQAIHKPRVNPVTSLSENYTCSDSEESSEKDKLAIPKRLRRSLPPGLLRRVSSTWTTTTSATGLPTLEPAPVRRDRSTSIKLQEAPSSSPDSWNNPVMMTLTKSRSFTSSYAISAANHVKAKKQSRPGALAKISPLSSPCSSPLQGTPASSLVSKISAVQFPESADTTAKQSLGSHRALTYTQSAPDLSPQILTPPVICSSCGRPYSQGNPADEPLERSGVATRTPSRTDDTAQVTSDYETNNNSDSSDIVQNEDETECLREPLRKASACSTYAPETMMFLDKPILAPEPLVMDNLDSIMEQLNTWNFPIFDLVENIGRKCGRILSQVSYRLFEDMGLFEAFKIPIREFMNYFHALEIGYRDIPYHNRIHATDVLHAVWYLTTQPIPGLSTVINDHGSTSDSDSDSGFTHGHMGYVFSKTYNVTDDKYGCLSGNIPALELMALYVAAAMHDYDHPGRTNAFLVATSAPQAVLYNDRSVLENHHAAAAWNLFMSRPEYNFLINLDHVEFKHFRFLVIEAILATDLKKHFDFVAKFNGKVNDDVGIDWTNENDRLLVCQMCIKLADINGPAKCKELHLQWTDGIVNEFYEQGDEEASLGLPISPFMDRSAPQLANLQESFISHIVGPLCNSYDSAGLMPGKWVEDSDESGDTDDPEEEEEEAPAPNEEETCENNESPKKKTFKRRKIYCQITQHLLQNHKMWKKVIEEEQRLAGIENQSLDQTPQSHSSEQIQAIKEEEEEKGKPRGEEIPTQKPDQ

Sequence of cGMP-inhibited 3',5'-cyclic phosphodiesterase 3B (Q13370 whole entry): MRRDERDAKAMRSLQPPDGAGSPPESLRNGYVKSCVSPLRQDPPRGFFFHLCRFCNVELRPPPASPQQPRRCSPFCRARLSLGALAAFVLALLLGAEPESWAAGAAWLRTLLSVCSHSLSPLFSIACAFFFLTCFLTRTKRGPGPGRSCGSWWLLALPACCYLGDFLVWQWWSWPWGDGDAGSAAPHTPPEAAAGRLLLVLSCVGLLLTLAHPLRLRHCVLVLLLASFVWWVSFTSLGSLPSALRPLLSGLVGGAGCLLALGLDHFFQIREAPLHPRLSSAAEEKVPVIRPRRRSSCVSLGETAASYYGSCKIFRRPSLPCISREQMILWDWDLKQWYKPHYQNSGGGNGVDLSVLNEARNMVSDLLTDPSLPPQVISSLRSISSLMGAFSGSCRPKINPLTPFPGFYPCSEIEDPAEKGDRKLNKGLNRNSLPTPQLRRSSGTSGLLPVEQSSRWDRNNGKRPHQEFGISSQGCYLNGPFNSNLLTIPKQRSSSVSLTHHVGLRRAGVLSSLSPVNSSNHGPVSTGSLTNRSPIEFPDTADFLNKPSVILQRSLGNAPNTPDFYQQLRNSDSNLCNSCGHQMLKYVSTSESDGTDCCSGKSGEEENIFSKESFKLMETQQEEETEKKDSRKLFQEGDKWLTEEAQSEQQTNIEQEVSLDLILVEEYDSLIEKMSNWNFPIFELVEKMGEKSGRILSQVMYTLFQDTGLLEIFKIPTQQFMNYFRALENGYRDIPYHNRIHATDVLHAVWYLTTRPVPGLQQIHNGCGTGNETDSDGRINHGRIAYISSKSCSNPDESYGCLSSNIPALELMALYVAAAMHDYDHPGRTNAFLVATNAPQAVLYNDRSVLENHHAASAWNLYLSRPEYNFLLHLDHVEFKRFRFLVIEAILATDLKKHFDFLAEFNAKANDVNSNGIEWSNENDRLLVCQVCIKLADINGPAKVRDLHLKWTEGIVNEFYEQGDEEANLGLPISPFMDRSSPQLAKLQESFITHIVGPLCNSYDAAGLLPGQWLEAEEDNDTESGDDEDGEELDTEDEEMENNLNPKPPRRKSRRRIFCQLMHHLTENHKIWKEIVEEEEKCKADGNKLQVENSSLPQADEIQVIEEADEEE

pIC50 [2] | pIC50 [3] | pIC50 [4] | pIC50 [5] | Compound | pIC50 [1]
9.22 | 9.70 |  |  | CCCCOc1ccc(C2=NNC(=O)O[C@H]2C)cc1C(F)(F)F | 9.30
9.22 | 9.52 | 8.15 | 8.22 | CCOc1ccc(C2=NNC(=O)O[C@H]2C)cc1C(F)(F)F | 9.30
9.30 | 9.70 | 8.05 | 8.05 | C[C@@H]1OC(=O)NN=C1c1ccc(OC[C@@H](C)F)c(C(F)(F)F)c1 | 9.52
9.52 | 10.00 |  |  | COCCOc1ccc(C2=NNC(=O)O[C@H]2C)cc1C(F)(F)F | 9.70
9.52 | 10.00 | 8.30 | 8.15 | C[C@@H]1OC(=O)NN=C1c1ccc(OCCC(F)(F)F)c(C(F)(F)F)c1 | 9.52
9.52 | 10.00 | 8.30 | 8.10 | CCCOc1ccc(C2=NNC(=O)O[C@H]2C)cc1C(F)(F)F | 9.52
